In data set [1] the target is Coagulation factor IX/VIII (Homo sapiens, UniProt P00451+P00740). Description: Inhibition of human citrated plasma iXase (factor 8a-factor 9a complex) preincubated for 2 mins followed by factor 10 addition and measured after 1 min by FXa chromogenic substrate SXa-11 based assay. It counts as protein-complex assay.
In the next data set the test system is Mus musculus. The data set can be described thus: Anticoagulation activity in Kunming mouse assessed as APTT-prolonging effect by measuring time for maximum effect at 15.3 mg/kg, sc measured after 0.5 to 8 hrs by APTT reagent based assay. Format: functional. The conditions noted are these: time 0.5-8 hrs.
A short description of data set [2]: Tmax in Kunming mouse at 15.3 mg/kg, sc. To be noted: in vivo. It counts as ADME, organism-based.
Data set [3] deals with Coagulation factor XI (Homo sapiens) (UniProt P03951). Description: Inhibition of factor 11a (unknown origin) at IC50 using S-2366 as substrate preincubated for 1 min followed by chromogenic substrate addition and measured for 2 mins. The conditions noted are these: time 3.0 min.
Data set [4] is described as follows: Half life in Kunming mouse at 15.3 mg/kg, sc. Format: ADME, organism-based. To be noted: in vivo.
Another data set concerns Rattus norvegicus. Description: Antithrombotic activity in thromboplastin and stasis-induced Sprague-Dawley rat deep venous thrombosis model assessed as reduction in venous thrombosis administered subcutaneously 1 hr prior to thromboplastin addition for 20 secs followed by establishment of stasis for 20 mins. To be noted: time 80.33 min. Format: functional.
Data set [5] deals with Plasma. Description: Anticoagulation activity in AT-III-deficient human plasma preincubated for 2 mins followed by APTT reagent and measured after 3 mins by coagulometric method. Format: functional, cell-free. To be noted: time 5.0 min.
Data set [6] in a line: MRT (0 to 8 hrs) in Kunming mouse at 1.7 mg/kg, sc. It counts as ADME, organism-based. The conditions noted are these: in vivo.
The target of data set [7] is T1, Coagulation factor XII (Homo sapiens) (UniProt P00748).
T1 sequence (whole entry): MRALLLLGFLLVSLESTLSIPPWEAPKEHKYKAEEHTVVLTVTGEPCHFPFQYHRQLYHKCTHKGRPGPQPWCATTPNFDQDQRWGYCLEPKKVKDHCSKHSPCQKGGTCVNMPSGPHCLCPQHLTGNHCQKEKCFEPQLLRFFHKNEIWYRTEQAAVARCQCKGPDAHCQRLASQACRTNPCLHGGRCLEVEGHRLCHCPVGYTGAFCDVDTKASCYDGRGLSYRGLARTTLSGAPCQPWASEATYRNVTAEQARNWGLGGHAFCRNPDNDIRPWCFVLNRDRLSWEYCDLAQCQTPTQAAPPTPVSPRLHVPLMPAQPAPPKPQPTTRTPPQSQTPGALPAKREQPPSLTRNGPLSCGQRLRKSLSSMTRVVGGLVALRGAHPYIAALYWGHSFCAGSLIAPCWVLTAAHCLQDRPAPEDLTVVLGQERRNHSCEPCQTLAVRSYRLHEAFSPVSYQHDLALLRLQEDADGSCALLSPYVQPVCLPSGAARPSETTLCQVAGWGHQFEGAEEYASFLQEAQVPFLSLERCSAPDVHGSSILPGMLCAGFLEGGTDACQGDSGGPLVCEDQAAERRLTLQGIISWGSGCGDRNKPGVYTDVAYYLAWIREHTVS
The data set can be described thus: Inhibition of factor 12a (unknown origin) at IC50 using kallikrein chromogenic substrate preincubated for 1 min followed by chromogenic substrate addition and measured for 2 mins in presence of AT-III. The conditions noted are these: time 3.0 min.

Data set [8] deals with Coagulation factor X (Homo sapiens) (UniProt P00742). The data set can be described thus: Inhibition of factor 10a (unknown origin) at IC50 preincubated for 1 min followed by chromogenic substrate addition and measured for 2 mins. To be noted: time 3.0 min.
The test system of data set [9] is Plasma. Description: Induction of platelet aggregation in rat wash platelet at plasma peak concentration of 10 times anti-thrombosis ED50 measured after 10 mins by light transmission aggregometry.

Calls of active or inactive are those of the source. No cut-off for these calls is given here.

Usually IC50 stands for the concentration that inhibits the measured activity by half. A higher IC50 goes with weaker potency. For orientation: Tmax means the time from dosing to the highest level. Broadly, the half-life is how long it takes for the measured level to halve. A lower half-life goes with rapid decline. As a reminder, the ED50 is the midpoint of the dose-response relation. The MRT last is a mean duration of stay, worked out from the concentration-time curve.

Coagulation factor X (Homo sapiens), sequence (P00742 41-179 limits assumed): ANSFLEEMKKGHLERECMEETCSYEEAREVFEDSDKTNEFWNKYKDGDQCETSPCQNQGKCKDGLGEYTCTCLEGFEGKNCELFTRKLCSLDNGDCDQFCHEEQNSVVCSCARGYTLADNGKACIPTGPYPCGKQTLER
Coagulation factor X (Homo sapiens), sequence (P00742 235-488 limits assumed): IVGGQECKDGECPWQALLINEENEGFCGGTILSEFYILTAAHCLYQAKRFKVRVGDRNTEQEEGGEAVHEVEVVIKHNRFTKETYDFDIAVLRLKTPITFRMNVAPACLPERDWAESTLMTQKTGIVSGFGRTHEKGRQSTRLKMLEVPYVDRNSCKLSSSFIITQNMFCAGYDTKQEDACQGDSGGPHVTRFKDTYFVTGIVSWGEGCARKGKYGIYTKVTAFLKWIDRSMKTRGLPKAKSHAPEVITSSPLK
Coagulation factor XI (Homo sapiens), sequence (P03951 19-387 limits assumed): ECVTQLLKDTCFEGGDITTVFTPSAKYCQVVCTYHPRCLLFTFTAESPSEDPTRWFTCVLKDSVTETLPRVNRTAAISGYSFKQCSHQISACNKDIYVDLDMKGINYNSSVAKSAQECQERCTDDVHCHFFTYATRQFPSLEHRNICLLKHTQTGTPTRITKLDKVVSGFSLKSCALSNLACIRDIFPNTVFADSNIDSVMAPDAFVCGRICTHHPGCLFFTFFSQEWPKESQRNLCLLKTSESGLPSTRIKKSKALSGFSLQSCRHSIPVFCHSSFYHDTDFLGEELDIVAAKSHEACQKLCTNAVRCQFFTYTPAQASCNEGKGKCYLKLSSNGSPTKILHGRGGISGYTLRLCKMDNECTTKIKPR
Coagulation factor XI (Homo sapiens), sequence (P03951 388-625 limits assumed): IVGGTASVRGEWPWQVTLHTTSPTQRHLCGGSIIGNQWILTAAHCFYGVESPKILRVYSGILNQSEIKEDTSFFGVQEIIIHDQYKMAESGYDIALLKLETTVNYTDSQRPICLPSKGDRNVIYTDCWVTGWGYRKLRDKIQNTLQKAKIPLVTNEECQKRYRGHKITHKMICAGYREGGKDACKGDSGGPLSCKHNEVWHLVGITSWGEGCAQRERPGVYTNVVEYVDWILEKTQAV
Coagulation factor IX/VIII, sequence (P00451 20-759 limits assumed): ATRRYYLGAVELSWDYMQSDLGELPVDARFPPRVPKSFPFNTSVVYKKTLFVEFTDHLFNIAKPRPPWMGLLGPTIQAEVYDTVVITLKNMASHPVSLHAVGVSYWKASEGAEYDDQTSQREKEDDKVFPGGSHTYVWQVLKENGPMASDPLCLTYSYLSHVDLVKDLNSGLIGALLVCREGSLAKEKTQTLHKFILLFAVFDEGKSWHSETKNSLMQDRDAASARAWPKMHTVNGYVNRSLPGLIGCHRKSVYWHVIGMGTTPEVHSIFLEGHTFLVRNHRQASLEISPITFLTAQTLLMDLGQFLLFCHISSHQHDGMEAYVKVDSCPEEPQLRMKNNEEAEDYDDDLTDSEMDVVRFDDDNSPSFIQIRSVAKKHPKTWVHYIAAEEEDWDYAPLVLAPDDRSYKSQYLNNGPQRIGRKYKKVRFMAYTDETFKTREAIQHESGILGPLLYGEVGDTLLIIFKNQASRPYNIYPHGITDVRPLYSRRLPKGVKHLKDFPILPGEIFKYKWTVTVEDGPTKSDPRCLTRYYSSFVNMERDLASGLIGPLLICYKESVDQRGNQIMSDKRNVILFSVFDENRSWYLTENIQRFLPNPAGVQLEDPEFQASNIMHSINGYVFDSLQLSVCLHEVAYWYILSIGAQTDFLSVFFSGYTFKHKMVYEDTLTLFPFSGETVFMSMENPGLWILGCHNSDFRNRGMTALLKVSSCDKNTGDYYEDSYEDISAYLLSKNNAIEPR
Coagulation factor IX/VIII, sequence (P00451 1668-2351 limits assumed): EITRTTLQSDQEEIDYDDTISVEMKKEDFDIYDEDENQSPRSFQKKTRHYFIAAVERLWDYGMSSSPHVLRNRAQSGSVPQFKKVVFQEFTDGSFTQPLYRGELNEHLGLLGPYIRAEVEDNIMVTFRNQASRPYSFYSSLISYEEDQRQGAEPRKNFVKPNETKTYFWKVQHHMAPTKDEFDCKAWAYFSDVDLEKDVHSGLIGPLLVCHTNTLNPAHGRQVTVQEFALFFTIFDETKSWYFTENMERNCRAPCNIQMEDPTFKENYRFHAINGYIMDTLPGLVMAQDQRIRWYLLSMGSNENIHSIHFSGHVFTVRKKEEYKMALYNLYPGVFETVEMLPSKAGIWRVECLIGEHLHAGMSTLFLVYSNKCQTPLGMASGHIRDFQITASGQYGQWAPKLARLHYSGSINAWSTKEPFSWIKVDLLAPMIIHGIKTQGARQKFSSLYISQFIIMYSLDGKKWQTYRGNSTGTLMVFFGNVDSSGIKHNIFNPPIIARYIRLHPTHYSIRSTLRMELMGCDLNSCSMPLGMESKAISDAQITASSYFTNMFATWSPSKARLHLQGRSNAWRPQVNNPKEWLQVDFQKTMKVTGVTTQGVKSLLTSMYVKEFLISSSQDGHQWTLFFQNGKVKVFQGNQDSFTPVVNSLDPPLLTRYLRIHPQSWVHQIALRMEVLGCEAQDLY
Coagulation factor IX/VIII, sequence (P00740 47-191 limits assumed): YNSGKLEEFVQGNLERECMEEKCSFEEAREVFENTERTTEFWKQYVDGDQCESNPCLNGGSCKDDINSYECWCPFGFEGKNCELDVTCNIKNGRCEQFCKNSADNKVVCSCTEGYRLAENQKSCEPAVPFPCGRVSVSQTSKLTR
Coagulation factor IX/VIII, sequence (P00740 227-461 limits assumed): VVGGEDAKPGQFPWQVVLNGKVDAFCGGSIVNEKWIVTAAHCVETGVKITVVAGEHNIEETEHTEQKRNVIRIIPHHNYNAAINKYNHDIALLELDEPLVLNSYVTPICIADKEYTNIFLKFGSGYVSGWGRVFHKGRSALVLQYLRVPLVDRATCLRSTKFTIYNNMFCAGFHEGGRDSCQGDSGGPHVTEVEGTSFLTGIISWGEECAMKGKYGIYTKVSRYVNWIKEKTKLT

Molecule `CC(=O)N[C@H]1[C@H](O[C@H]2[C@H](O[C@@H]3O[C@@H](C)[C@@H](OS(=O)(=O)[O-])[C@@H](O)[C@@H]3OS(=O)(=O)O)[C@@H](O)[C@H](O[C@H]3[C@@H](NC(C)=O)[C@H](O[C@H]4[C@H](O[C@@H]5O[C@@H](C)[C@@H](OS(=O)(=O)[O-])[C@@H](O)[C@@H]5OS(=O)(=O)O)[C@@H](O)[C@H](O[C@H]5[C@@H](NC(C)=O)[C@H](O[C@H]6[C@H](O[C@@H]7O[C@@H](C)[C@@H](OS(=O)(=O)[O-])[C@@H](O)[C@@H]7OS(=O)(=O)O)[C@@H](O)[C@H](O[C@H]7[C@@H](NC(C)=O)[C@H](O[C@H]8[C@H](O[C@@H]9O[C@@H](C)[C@@H](OS(=O)(=O)[O-])[C@@H](O)[C@@H]9OS(=O)(=O)O)[C@@H](O)[C@H](O[C@H]9[C@@H](NC(C)=O)[C@H](O[C@@H]([C@H](O[C@@H]%10O[C@@H](C)[C@@H](OS(=O)(=O)[O-])[C@@H](O)[C@@H]%10OS(=O)(=O)O)[C@@H](O)CO)[C@H](O)C(=O)[O-])O[C@H](COS(=O)(=O)[O-])[C@@H]9OS(=O)(=O)[O-])O[C@@H]8C(=O)[O-])O[C@H](COS(=O)(=O)[O-])[C@@H]7OS(=O)(=O)[O-])O[C@@H]6C(=O)[O-])O[C@H](COS(=O)(=O)[O-])[C@@H]5OS(=O)(=O)[O-])O[C@@H]4C(=O)[O-])O[C@H](COS(=O)(=O)[O-])[C@@H]3OS(=O)(=O)[O-])O[C@@H]2C(=O)[O-])O[C@H](COS(=O)(=O)[O-])[C@H](OS(=O)(=O)[O-])[C@@H]1O[C@@H]1OC(C(=O)[O-])=C[C@H](O[C@@H]2O[C@@H](C)[C@@H](OS(=O)(=O)[O-])[C@@H](O)[C@@H]2OS(=O)(=O)O)[C@H]1O.[Na+].[Na+].[Na+].[Na+].[Na+].[Na+].[Na+].[Na+].[Na+].[Na+].[Na+].[Na+].[Na+].[Na+].[Na+].[Na+].[Na+].[Na+].[Na+].[Na+].[Na+].[Na+]` returned an IC50 in data set [1] of 14 nM. Also, the Emax with Mus musculus is recorded as 20.2 s. The time to peak (Tmax) in data set [2] turned out to be 45 min. For the same molecule, the inhibition entry in data set [3], in data set [7] and in data set [8] was “inactive” each time. Further, the half-life in data set [4] was 33.8 min. In addition, in the data set on Rattus norvegicus (sc, 1.339 h), the ED50 was found to be 2.38 mg/kg. Moreover, the Activity result is “Dose-dependent effect” in the data set on Rattus norvegicus and “Not Active” with Plasma [9]. Further, the result in the data set on Plasma [5] was Active. This molecule also returned an MRT last in data set [6] of 119 min.
